# In ChEMBL document CHEMBL1123367, “Furanose-pyranose isomerization of reduced pyrimidine and cyclic urea ribosides” (J Med Chem, 1986):
# Experiments:
# [1] = Half-life of the initial pseudo-first-order isomerization at apparent pH 1.0 and 25 degree celsius; assay type: ADME; conditions: read-out: T1/2 app
# [2] = Half-life of the initial pseudo-first-order isomerization at apparent pH 1.0 and 37 degree celsius; assay type: ADME; conditions: read-out: T1/2 app (converted)
# [3] = Half-life of the initial pseudo-first-order isomerization at apparent pH 2.0 and 25 degree celsius; assay type: ADME; conditions: read-out: T1/2 app (converted)
# [4] = Half-life of the initial pseudo-first-order isomerization at apparent pH 2.8 and 37 degree celsius; assay type: ADME; conditions: read-out: T1/2 app (converted)
# Cytidine deaminase = Cytidine deaminase (Mus musculus, UniProt P56389); assay: Compound was tested […] for its ability to inhibit mouse kidney cytidine deaminase (CDA)
# Chain of Cytidine deaminase (P56389 whole entry): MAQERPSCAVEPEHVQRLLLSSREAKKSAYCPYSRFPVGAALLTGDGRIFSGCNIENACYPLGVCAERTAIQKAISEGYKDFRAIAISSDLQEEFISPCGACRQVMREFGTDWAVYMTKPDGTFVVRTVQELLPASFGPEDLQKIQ
half-life [1] [min],half-life [2] [min],half-life [3] [min],half-life [4] [min],Ki (Cytidine deaminase) [µM],SMILES
< 12,37.8,134,312,–,O=C1NCCCN1[C@@H]1O[C@H](CO)[C@@H](O)[C@H]1O
–,–,–,–,> 50,O=C1NCCCN1C1OC[C@@H](O)[C@H](O)[C@@H]1O (stereo partly specified)
–,–,–,–,6.6,O=C1NCCCCN1[C@@H]1OC[C@@H](O)[C@@H](O)[C@H]1O
